The results in this text go back to PubChem BioAssay (NCI).

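How tested: cells in 96-well plates exposed to compound for 48 hours at five concentrations. TGI denotes the concentration required for complete inhibition of growth.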

Test systems include CCRF-CEM leukemia; HL-60(TB) leukemia; RXF 393 renal; SF-539 CNS; BT-549 breast; CAKI-1 renal; NCI-H460 lung; SF-268 CNS; COLO 205 colon; HCC-2998 colon.
What all share (test): inhibition of tumour cell growth, NCI panel, 48 h

With `CCOC(=O)c1c2ccccc2n2c(N)c(C(N)=O)nnc12`, the TGI in the assay with CCRF-CEM leukemia was more than 100 µM; in the assay with HL-60(TB) leukemia, more than 100 µM; in the assay with RXF 393 renal it was 41.6 µM; in the assay with SF-539 CNS it was 49.8 µM; with BT-549 breast, 89.9 µM; in the assay on CAKI-1 renal, more than 100 µM. The TGI with NCI-H460 lung is more than 100 µM; with SF-268 CNS, 56.3 µM; in the assay on COLO 205 colon it was more than 100 µM; in the assay on HCC-2998 colon it was more than 100 µM.

As to `Oc1cccc2c(Cl)ccnc12`, the TGI is 2.52 µM in the assay on CCRF-CEM leukemia; 3.36 µM in the assay on HL-60(TB) leukemia; 7.95 µM in the assay with RXF 393 renal; more than 60.5 µM in the assay with SF-539 CNS; more than 100 µM in the assay on BT-549 breast; more than 58.5 µM in the assay on CAKI-1 renal. Also, the TGI is more than 100 µM in the assay with NCI-H460 lung, more than 39.3 µM with SF-268 CNS, 32.6 µM in the assay with COLO 205 colon and 14.9 µM in the assay with HCC-2998 colon.

For the molecule `COc1c(C)c(C/C=C(\C)CCCCO[Si](c2ccccc2)(c2ccccc2)C(C)(C)C)c(OC)c(OC)c1OC`, the TGI in the assay on CCRF-CEM leukemia was more than 46.4 µM; in the assay on HL-60(TB) leukemia, more than 100 µM; with RXF 393 renal, more than 100 µM; in the assay on SF-539 CNS it was more than 46.4 µM; in the assay with BT-549 breast it was more than 46.4 µM; in the assay on CAKI-1 renal, 48.1 µM. Further, the TGI in the assay on NCI-H460 lung was 25 µM; with SF-268 CNS, more than 100 µM; with COLO 205 colon, 39.9 µM; in the assay on HCC-2998 colon, more than 46.4 µM.

Take `Cc1cc(O)c2c(=O)c3ccccc3[nH]c2c1`: the TGI in the assay with CCRF-CEM leukemia is more than 100 µM; with HL-60(TB) leukemia, 64.7 µM; with RXF 393 renal, 82.8 µM; with SF-539 CNS it was 33 µM; in the assay on BT-549 breast it was 85.3 µM; in the assay on CAKI-1 renal it was 90.6 µM. Besides, the TGI was more than 100 µM in the assay on NCI-H460 lung, more than 100 µM with SF-268 CNS, 42 µM in the assay with COLO 205 colon and more than 100 µM with HCC-2998 colon.

Consider `O=C(CCC(=O)c1ccc(Cl)cc1)NO`, for which the TGI with CCRF-CEM leukemia, in the assay with HL-60(TB) leukemia, in the assay on RXF 393 renal, in the assay with SF-539 CNS, with BT-549 breast and in the assay on CAKI-1 renal was more than 100 µM in each case. Besides, the TGI with NCI-H460 lung, in the assay with SF-268 CNS, in the assay on COLO 205 colon and in the assay with HCC-2998 colon was more than 100 µM throughout.

With `COc1ccc(N2C(=O)C3c4[nH]c5ccccc5c4C4CCC(C(C)(C)C)CC4C3C2=O)c(C)c1` (stereo not given), the TGI with CCRF-CEM leukemia, in the assay with HL-60(TB) leukemia, in the assay with RXF 393 renal, in the assay with SF-539 CNS, with BT-549 breast and with CAKI-1 renal was more than 100 µM throughout. The TGI with NCI-H460 lung, in the assay with SF-268 CNS, in the assay on COLO 205 colon and in the assay with HCC-2998 colon was more than 100 µM each time.

Turning to `C[C@@]12C[C@@H](c3ccccc3O1)N1CCCCSC1=N2`, the TGI in the assay with CCRF-CEM leukemia, in the assay on HL-60(TB) leukemia, in the assay on RXF 393 renal, in the assay on SF-539 CNS, with BT-549 breast and with CAKI-1 renal was more than 100 µM each time. Also, the TGI in the assay with NCI-H460 lung, with SF-268 CNS, in the assay with COLO 205 colon and with HCC-2998 colon was more than 100 µM each time.

Consider `N=c1n(C(=O)N2CCCC2)c2cc(Cl)ccc2n1C1=NCCN1`, for which the TGI in the assay on CCRF-CEM leukemia, in the assay on HL-60(TB) leukemia, in the assay on RXF 393 renal, with SF-539 CNS, in the assay with BT-549 breast and in the assay on CAKI-1 renal was more than 100 µM in each case. The TGI with NCI-H460 lung, in the assay on SF-268 CNS, in the assay with COLO 205 colon and in the assay with HCC-2998 colon was more than 100 µM in each case.

On to `O=S1(=O)NC(=NCc2c[nH]c3ccccc23)N(c2ccccc2)c2ccncc21`, for which the TGI in the assay with CCRF-CEM leukemia, in the assay with HL-60(TB) leukemia, in the assay on RXF 393 renal, in the assay on SF-539 CNS, with BT-549 breast and in the assay with CAKI-1 renal was more than 100 µM each time. For the same molecule, the TGI in the assay with NCI-H460 lung is more than 100 µM; with SF-268 CNS, 75.6 µM; in the assay with COLO 205 colon, more than 100 µM; in the assay on HCC-2998 colon, more than 100 µM.

With `Cc1ccccc1-n1c(=O)c2ncn(CCCl)c2n(-c2ccccc2C)c1=S`, the TGI with CCRF-CEM leukemia, with HL-60(TB) leukemia, with RXF 393 renal, in the assay on SF-539 CNS, with BT-549 breast and in the assay on CAKI-1 renal was more than 100 µM throughout. Besides, the TGI in the assay with NCI-H460 lung, in the assay on SF-268 CNS, in the assay on COLO 205 colon and in the assay on HCC-2998 colon was more than 100 µM in each case.

For the molecule `CC1=CC2C(O1)C1C(=O)C=CC(=O)C1=CC2[N+](=O)[O-]` (stereo not given), the TGI with CCRF-CEM leukemia is more than 23.7 µM; in the assay with HL-60(TB) leukemia, more than 22.5 µM; in the assay on RXF 393 renal, 28.2 µM; in the assay with SF-539 CNS, 96.5 µM; in the assay with BT-549 breast, 29.6 µM; with CAKI-1 renal it was 9.33 µM. In addition, the TGI with NCI-H460 lung is 36.4 µM; in the assay with SF-268 CNS it was 29.3 µM; in the assay with COLO 205 colon it was 21.2 µM; with HCC-2998 colon it was more than 59.7 µM.
